Source: patent publication US8101612B2, “Phthalazine compounds and methods of use” (Amgen Inc., priority 2006, dated 2012)

Assays:
[1] = test system: THP1 cells (LPS-induced TNF-α secretion); test: Lipopolysaccharide-activated THP1 cell TNF production assay; type: cell-based; settings: Homo sapiens, THP-1
Method: Lipopolysaccharide-Activated THP1 Cell TNF Production Assay
THP1 cells are resuspended in fresh THP1 media (RPMI 1640, 10% heat-inactivated FBS, 1XPGS, 1XNEAA, plus 30 μM βME) at a concentration of 1E6/mL. One hundred microliters of cells per well are plated in a polystyrene 96-well tissue culture. One microgram per mL of bacterial LPS is prepared in THP1 media and is transferred to the wells. Test compounds are dissolved in 100% DMSO and are serially diluted 3-fold in a polypropylene 96-well microtiter plate (drug plate). HI control and LO control wells contain only DMSO. One microliter of test compound from the drug plate followed by 10 μL of LPS are transferred to the cell plate. The treated cells are induced to synthesize and secrete TNF-α at 37° C. for 3 h. Forty microliters of conditioned media are transferred to a 96-well polypropylene plate containing 110 μL of ECL buffer (50 mM Tris-HCl pH 8.0, 100 mM NaCl, 0.05% Tween 20, 0.05% NaN3 and 1% FBS) supplemented with 0.44 nM MAB610 monoclonal Ab (R&D Systems), 0.34 nM ruthenylated AF210NA polyclonal Ab (R&D Systems) and 44 μg/mL sheep anti-mouse M280 Dynabeads (Dynal). After a 2 h incubation at room temperature with shaking, the reaction is read on the ECL M8 Instrument (IGEN Inc.). A low voltage is applied to the ruthenylated TNF-α immune complexes, which in the presence of TPA (the active component in Origlo), results in a cyclical redox reaction generating light at […]. The amount of secreted TNF-α in the presence of compound compared with that in the presence of DMSO vehicle alone (HI control) is calculated using the formula: % control (POC)=(cpd−average LO)/(average HI−average LO)*100. Data (consisting of POC and inhibitor concentration in μM) is fitted to a 4-parameter equation (y=A+((B−A)/(1+((x/C)^D))), where A is the minimum y (POC) value, B is the maximum y (POC), C is the x (cpd concentration) at the point of inflection and D is the slope factor) using a Levenburg-Marquardt non-linear regression algorithm.

[2] = test system: production of TNF by monocytes activated with bacterial lipopolysaccharide (LPS); test: Lipopolysaccharide-activated monocyte TNF production assay (whole blood monocyte assay, LPS induced TNF release); type: cell-based; settings: Homo sapiens
Method: Lipopolysaccharide-Activated Monocyte TNF Production Assay
Test compounds were evaluated in vitro for the ability to inhibit the production of TNF by monocytes activated with bacterial lipopolysaccharide (LPS). Fresh residual source leukocytes (a byproduct of plateletpheresis) were obtained from a local blood bank, and peripheral blood mononuclear cells (PBMCs) were isolated by density gradient centrifugation on Ficol-Paque Plus (Pharmacia). PBMCs were suspended at 2×10^6/mL in DMEM supplemented to contain 2% FCS, 10 mM, 0.3 mg/mL […], 100 U/mL penicillin G and […] streptomycin sulfate (complete media). Cells were plated into Falcon flat bottom, 96 well culture plates (200 μL/well) and cultured overnight at 37° C. and 6% CO2. Non-adherent cells were removed by washing with 200 μl/well of fresh medium. Wells containing adherent cells (˜70% monocytes) were replenished with 100 μL of fresh medium.
Preparation of Test Compound Stock Solutions
Test compounds were dissolved in […]. Compound stock solutions were prepared to an initial concentration of […]. Stocks were diluted initially to 20-200 μM in complete media. Nine two-fold serial dilutions of each compound were then prepared in complete medium.
Treatment of Cells with Test Compounds and Activation of TNF Production with Lipopolysaccharide
One hundred microliters of each test compound dilution were added to microtiter wells containing adherent monocytes and 100 μL complete medium. Monocytes were cultured with test compounds for 60 min at which time 25 μL of complete medium containing 30 ng/mL lipopolysaccharide from E. coli K532 were added to each well. Cells were cultured an additional 4 hrs. Culture supernatants were then removed and TNF presence in the supernatants was quantified using an ELISA.
Flat bottom, 96 well Corning High Binding ELISA plates were coated overnight (4° C.) with 150 μL/well of 3 μg/mL murine anti-human TNF-α MAb (R&D Systems #MAB210). Wells were then blocked for 1 h at room temperature with 200 μL/well of CaCl2-free ELISA buffer supplemented to contain 20 mg/mL BSA (standard ELISA buffer: […], 150 mM NaCl, 2 mM CaCl2, 0.15 mM thimerosal, pH 7.4). Plates were washed and replenished with 100 μL of test supernatants (diluted 1:3) or standards. Standards consisted of eleven 1.5-fold serial dilutions from a stock of 1 ng/mL recombinant human TNF (R&D Systems). Plates were incubated at room temperature for 1 h on orbital shaker (300 rpm), washed and replenished with 100 μL/well of 0.5 μg/mL goat anti-human TNF-α (R&D systems #AB-210-NA) biotinylated at a 4:1 ratio. Plates were incubated for 40 min, washed and replenished with 100 μL/well of alkaline phosphatase-conjugated streptavidin (Jackson ImmunoResearch #016-050-084) at 0.02 μg/mL. Plates were incubated 30 min, washed and replenished with 200 μL/well of 1 mg/mL of p-nitrophenyl phosphate. After 30 min, plates were read at 405 nm on a Vmax plate reader.

[3] = AA5225_IC50_IP (Table 4, assay code not explained); settings: internal assay code
[4] = AA2734_IC50_IP (Table 4, assay code not explained); settings: internal assay code

| IC50 [1] [nM] | Compound | IC50 [2] [nM] | IC50 [3] [nM] | IC50 [4] [nM] |
| --- | --- | --- | --- | --- |
| ≤ 10 | Cc1ccc(C(=O)Nc2ccnn2C)cc1-c1ccc2c(OCC(F)(F)F)nncc2c1 [Example 2, 4-Methyl-N-(1-methyl-1H-pyrazol-5-yl)-3-(1-(2,2,2-trifluoroethoxy)phthalazin-6-yl)benzamide] |  |  |  |
| ≤ 10 | CC(C)Nc1nncc2cc(-c3cc(C(=O)NC4CC4)ccc3Cl)ccc12 [Example 23, 4-chloro-N-cyclopropyl-3-(1-((1-methylethyl)amino)-6-phthalazinyl)benzamide] |  |  |  |
| ≤ 10 | CC(C)Oc1nncc2cc(-c3cc(C(N)=O)ccc3Cl)ccc12 [Example 25, 4-chloro-3-(1-((1-methylethyl)oxy)-6-phthalazinyl)benzamide] |  |  |  |
|  | Cc1ccc(C(=O)NC(C)C)cc1-c1ccc2c(O[C@H](C)C(F)(F)F)nncc2c1 [Example 41, 4-methyl-N-(1-methylethyl)-3-(1-(((1R)-2,2,2-trifluoro-1-methylethyl)oxy)-6-phthalazinyl)benzamide] | ≤ 100 |  |  |
|  | Cc1ccc(C(N)=O)cc1-c1ccc2c(O[C@H](C)C(F)(F)F)nncc2c1 [Example 43, 4-methyl-3-(1-(((1R)-2,2,2-trifluoro-1-methylethyl)oxy)-6-phthalazinyl)benzamide] | ≤ 100 |  |  |
| ≤ 100 | Cc1ccc(C(=O)NC2CC2)cc1-c1ccc2c(OC(CF)CF)nncc2c1 [Example 49, N-cyclopropyl-3-(1-((2-fluoro-1-(fluoromethyl)ethyl)oxy)-6-phthalazinyl)-4-methylbenzamide] |  |  |  |
|  | CCC(C)c1nncc2cc(-c3cc(C(N)=O)ccc3C)ccc12 (centres unmarked) [Example 51, 4-methyl-3-(1-(1-methylpropyl)-6-phthalazinyl)benzamide] | ≤ 10 |  |  |
|  | Cc1ccc(C(=O)NC2(C)CC2)cc1-c1ccc2c(N3CCC[C@@H]3C)nncc2c1 [Example 66, 4-methyl-N-(1-methylcyclopropyl)-3-(1-((2S)-2-methyl-1-pyrrolidinyl)-6-phthalazinyl)benzamide] | ≤ 10 |  |  |
|  | Cc1ccc(C(=O)Nc2ccn(C)n2)cc1-c1ccc2c(O[C@@H](C)C(F)(F)F)nncc2c1 [Example 72, 4-methyl-N-(1-methyl-1H-pyrazol-3-yl)-3-(1-(((1S)-2,2,2-trifluoro-1-methylethyl)oxy)-6-phthalazinyl)benzamide] | ≤ 10 |  |  |
|  | Cc1ccc(C(=O)NC2CC2)cc1-c1ccc2c(-c3cc(F)c(S(C)(=O)=O)cc3C)nncc2c1 [Example 223, N-cyclopropyl-3-(1-(5-fluoro-2-methyl-4-(methylsulfonyl)phenyl)-6-phthalazinyl)-4-methylbenzamide] | ≤ 10 | 0.854 | 1.22 |
|  | Cc1ccc(C(=O)NC2CC2)cc1-c1ccc2c([C@H](C)C(F)(F)F)nncc2c1 [Example 227b, N-cyclopropyl-4-methyl-3-(1-((1S)-2,2,2-trifluoro-1-methylethyl)-6-phthalazinyl)benzamide] | ≤ 10 | 1.61 | 0.33 |
|  | Cc1ccc(N)cc1-c1ccc2c(O[C@H](C)C(F)(F)F)nncc2c1 [Example 238, 4-methyl-3-(1-(((1R)-2,2,2-trifluoro-1-methylethyl)oxy)-6-phthalazinyl)aniline] | ≤ 250 |  |  |

| Compound | IC50 [1] [nM] | IC50 [2] [nM] | IC50 [3] [nM] | IC50 [4] [nM] |
| --- | --- | --- | --- | --- |
| CCn1nccc1NC(=O)c1ccc(C)c(-c2ccc3c(NC(C)C)nncc3c2)c1 [Example 3, N-(1-Ethyl-1H-pyrazol-5-yl)-3-(1-(isopropylamino)phthalazin-6-yl)-4-methylbenzamide] | ≤ 10 | ≤ 10 |  |  |
| Cc1ccc(C(=O)Nc2ccnn2C)cc1-c1ccc2c(-c3ccccc3C)nncc2c1 [Example 5, 4-methyl-N-(1-methyl-1H-pyrazol-5-yl)-3-(1-o-tolylphthalazin-6-yl)benzamide] | ≤ 10 | ≤ 10 |  |  |
